Assay results taken from US4005219A, “Pharmaceutical compositions and their administration for the prophylaxis of asthma, hayfever and rhinitis” (Beecham Group Limited, priority 1974, dated 1977).

Test system: PCA response
Experiment: Rat Passive Cutaneous Anaphylaxis (PCA) test
Format: in vivo, Wistar rats
Conditions: iv
Description: All of the 2-nitro indane-1,3-diones prepared in the preceeding Examples were submitted for biological testing. The test system was the Rat Passive Cutaneous Anaphylaxis (PCA) test described below in (II).
7, 681Serum containing heat labile homocytotropic antibody was raised in rats by a method similar to that used by Mota. (I. Mota Immunology 1964, 7, 681).
Male Wistar rats of 250-300g, were injected intraperitoneally with 0.5ml. of Bordetella pertussis vaccine (containing 4 × 10^10 dead oranism per ml. and subcutaneously with 0.5ml. of an emulsion of 100mg. of ovalbumin in 2ml of saline and 3ml of incomplete Freunds' adjuvant. Rats were bled by cardiac puncture on day 18, the blood was pooled and separated and serum stored at -20° and thawed only once before use.
II. The P.C.A. test was similar to that described by Ovary and Bier (A. Ovary and O. E. Bier. Proc. Soc. Exp. Biol. Med. 1952, 81, 584) and Goose and Blair (J. Goose and A. M. J. N Blair Immunology 1969, 16, 749).
0.1ml of each of six twofold serial dilutions of the serum in 0.9% saline were injected intradermally into separate sites on the shaved dorsal surface of 250-350g. Wistar rats. 72 hours later the animals were challenged by i.v. injection of 0.3ml of 1% ovalbumin mixed with 0.1ml of a 5% solution of pontamine sky blue dye both in isotonic saline buffered with pH. 7.2 Sorenson buffer (P.B.S.). The rats were killed after 20 minutes and the diameter of the blue wheals at the antibody injection sites were measured. The starting dilution of the serum was adjusted so that there was no response, after challenge, at the site of injection of the highest dilution and a maximum response at the lowest dilution. Typically six twofold serial dilutions of the serum from one-fourth to […] were used.
Compounds were tested for their ability to reduce the diameter of the wheals at the injection sites of dilutions of antibody which on all the controls have less than maximum response. Amounts of the compounds were administered to rats each amount to a test group of six animals at a specified time prior to intravenous challenge with ovalbumin. The diameters of the blue wheals which developed on the test group of animals were compared with those on a control group of six animals treated in the same way as the test group, but which had not received the compound under test.
% Inhibition of P.C.A. = 100 (1 - a/b)
a = The mean of the sum of the diameters of the wheals produced in the test group of animals at those antibody sites where all the control group of animals gave less than maximum response.
b = The mean of the sum of diameters of the wheals produced in the control group of animals at those antibody sites where all the animals in the group gave less than maximum response.
The preferred method of administration was as a solution of the test compound dissolved in pH 7.2 buffer and neutralised with sodium bicarbonate. For those compounds having insoluble sodium salts, the salts were isolated by reaction of the free nitro compound with 2.5N sodium hydroxide and the filtered sodium salt washed free of alkali with water. The dried salts were then administered as a suspension in 1% methyl cellulose.

[1] = 0 h, Time 0 mins (prior to i.v. ovalbumin challenge)
[2] = 0.5 h, Time 30 mins (prior to i.v. ovalbumin challenge)
[3] = 1 h, Time 60 mins (prior to i.v. ovalbumin challenge)

Row | SMILES | inhibition in vivo at 25 mg/kg [1] [%] | inhibition in vivo at 100 mg/kg [1] [%] | inhibition in vivo at 25 mg/kg [2] [%] | inhibition in vivo at 100 mg/kg [2] [%] | inhibition in vivo at 25 mg/kg [3] [%] | inhibition in vivo at 100 mg/kg [3] [%]
1 | CC1=C(C)C[C@H]2C(=O)C([N+](=O)[O-])C(=O)[C@H]2C1 (relative stereo) [1(b), 5,6-Dimethyl-2-nitro cis-3a,4,7,7a-tetrahydroindane-1,3-dione] | 16 | 61 | 6 | 42 |  | 
2 | CC1C[C@@H]2C(=O)C([N+](=O)[O-])C(=O)[C@@H]2CC1C (stereo partly drawn) [2(b), 5,6-Dimethyl cis-hexahydro-2-nitro indane-1,3-dione] | 7 | 31 | 6 | 37 |  | 
3 | CC1C=CC(C)[C@@H]2C(=O)C([N+](=O)[O-])C(=O)[C@H]12 (stereo partly drawn) [3(b), 4,7-Dimethyl-2-nitro cis-3a,4,7,7a-tetrahydroindane-1,3-dione] | -8 | -8 | 7 | -1 |  | 
4 | CC1CCC(C)[C@@H]2C(=O)C([N+](=O)[O-])C(=O)[C@H]12 (stereo partly drawn) [4(b), 4,7-Dimethyl cis-hexahydro-2-nitro indane-1,3-dione] | 4 | 19 |  |  | 13 | 11
5 | O=C(O)C1C=CC[C@@H]2C(=O)C([N+](=O)[O-])C(=O)[C@H]12 (stereo partly drawn) [5(b), 4-Carboxy-2-nitro cis-3a,4,7,7a-tetrahydroindane-1,3-dione] | 2 | -3 | -1 | -6 |  | 
6 | O=C1C2C3C=CC(C3)C2C(=O)C1[N+](=O)[O-] (stereo not shown) [6(b), 4-Nitro tricyclo [5,2,1,0^2,6] dec-8-ene-3,5-dione] | -9 | 4 |  |  | -9 | 17
7 | O=C1C2C3CCC(C3)C2C(=O)C1[N+](=O)[O-] (stereo not shown) [7(b), 4-Nitro tricyclo [5,2,1,0^2,6] decane-3,5-dione] | 8 | 26 | -3 | 9 |  | 
8 | CC1C=CC[C@@H]2C(=O)C([N+](=O)[O-])C(=O)[C@H]12 (stereo partly drawn) [8(b), 4-Methyl-2-nitro-cis-3a,4,7,7a-tetrahydroindane-1,3-dione] | 12 | 41 | 13 | 52 |  | 
9 | COC(=O)C1C=CC[C@@H]2C(=O)C([N+](=O)[O-])C(=O)[C@H]12 (stereo partly drawn) [9(b), 4-Carbomethoxy-2-nitro-cis-3a, 4,7,7a-tetrahydroindane-1,3-dione] | 2 | 10 | -9 | -5 |  | 
10 | CC(=O)OC1CCC[C@@H]2C(=O)C([N+](=O)[O-])C(=O)[C@H]12 (stereo partly drawn) [10(b), 4-Acetoxy-cis-hexahydro-2-nitro-indane-1,3-dione] | 12 | 11 | 17 | 20 |  | 
11 | O=C1C2C3C=CC(CC3)C2C(=O)C1[N+](=O)[O-] (stereo not shown) [12(b), 4-Nitro tricyclo [5,2,2,0^2,6] undec-8-ene-3,5-dione] | 0 | -3 | 29 | 32 |  | 
12 | O=C1C2C3CCC(CC3)C2C(=O)C1[N+](=O)[O-] (stereo not shown) [13(b), 4-Nitro tricyclo [5,2,2,0^2,6] undecane-3,5-dione] | 14 | 8 | 13 | 29 |  | 
13 | CC1CCC[C@@H]2C(=O)C([N+](=O)[O-])C(=O)[C@H]12 (stereo partly drawn) [II(b), 4-Methyl-2-nitro-cis-hexahydroindane-1,3-dione] | -13 | 11 | -8 | 17 |  | 
